Measured values taken from patent publication US20250163050A1, “CRYSTALLINE (+)-TETRABENAZINE” (Foresee Pharmaceuticals Co., Ltd., priority 2022, published 2025).
Values after ≈ are worked out from the molar mass of the structure shown. Like-named read-outs stand apart in the source and are kept apart here.

Experiments:
dopamine receptors = settings: cited from earlier work
[1] = compared with TBZ; cited from earlier work
[2] = Powder flow property, angle of repose (USP 1174); assay type: physicochemical
Source text: The present application enables the production of crystalline (+)-TBZ in various particle size ranges and crystal morphology (e.g. rod-shaped crystals and more symmetric crystals). As API powder/crystalline flowability can be critical in the manufacture of a drug product, flow property of crystalline (+)-TBZ in the present application was investigated.

[3] = Solubility in PBS with 0.2% (w/v) tween 20 at 37° C.; assay type: physicochemical; settings: for solubility: PBS with 0.2% (w/v) tween 20, 37° C., overnight
Procedure: 20 mg Form 2 crystalline (+)-TBZ was dispersed into 1 ml PBS with 0.2% (w/v) tween 20. Then, this excessively saturated suspension was stirred overnight at 37° C. 0.8 ml of former suspension was transferred into 1.5 mL Eppendorf centrifuge tube. The undissolved solid was spun down using bench-top centrifuge at the rotation of 14000 rpm for 5 min.
• Flow rate: 0.3 mL/min • Column temp: 55° C. • Injection volume: 2 uL • Detection: 220 nm • Run time: 10 min • (+)-TBZ retention time: ˜3.5 min

[4] = Metabolism in rat liver microsome (RLM); assay type: in vitro ADME
Procedure: Rat liver microsome (RLM) study was conducted to investigate the generation of pharmaceutically active metabolites of Form 2 (+)-TBZ and TBZ racemate.

[5] = patients, dose escalation; cited from earlier work
[6] = in vivo; cited from earlier work

COc1cc2c(cc1OC)[C@H]1C[C@@H](O)[C@H](CC(C)C)CN1CC2 [(2R,3R,11bR)-DHTBZ]
binding at dopamine receptors (dopamine receptors): negligible binding | sedative effects [1]: lack the unwanted sedative effects

COc1cc2c(cc1OC)[C@H]1CC(=O)[C@H](CC(C)C)CN1CC2 [Form 2 crystalline (+)-TBZ, (3R,11bR)-tetrabenazine]
Response Angle ([2]; D50 15 μm): 45.3 ± 5.0 ° | Response Angle ([2]; D50 35 μm): 43.3 ± 2.5 ° | Response Angle ([2]; D50 50 μm): 36.7 ± 7.6 ° | Response Angle ([2]; D50 80 μm, more symmetric crystals): 34.7 ± 1.2 ° | Response Angle ([2]; D50 80 μm, more symmetric crystals, listed as more symmetric crystalline (+)-TBZ): about 35 ° | Response Angle ([2]; D50 125 μm): 35.3 ± 2.3 ° | Response Angle ([2]; Rod shape (80 μm)): 64.3 ± 1.2 ° | Response Angle ([2]; Rod shape (80 μm), listed as rod-shaped crystalline (+)-TBZ): about 64 ° | solubility [3]: 61.032 µg/mL (≈ 192 µM) | (+)-DHTBZ concentration in RLM ([4]; 0 min): 0 ng/mL | (+)-TBZ concentration in RLM ([4]; 0 min): 2056 ng/mL | (−)-DHTBZ concentration in RLM ([4]; 0 min): 0 ng/mL | (−)-TBZ concentration in RLM ([4]; 0 min): 0 ng/mL | (+)-DHTBZ concentration in RLM ([4]; 15 min): 455 ng/mL | (+)-TBZ concentration in RLM ([4]; 15 min): 881 ng/mL | (−)-DHTBZ concentration in RLM ([4]; 15 min): 0 ng/mL | (−)-TBZ concentration in RLM ([4]; 15 min): 0 ng/mL | (+)-DHTBZ concentration in RLM ([4]; 30 min): 608 ng/mL | (+)-TBZ concentration in RLM ([4]; 30 min): 366 ng/mL | (−)-DHTBZ concentration in RLM ([4]; 30 min): 0 ng/mL | (−)-TBZ concentration in RLM ([4]; 30 min): 0 ng/mL | (+)-DHTBZ concentration in RLM ([4]; 45 min): 616 ng/mL | (+)-TBZ concentration in RLM ([4]; 45 min): 122 ng/mL | (−)-DHTBZ concentration in RLM ([4]; 45 min): 0 ng/mL | (−)-TBZ concentration in RLM ([4]; 45 min): 0 ng/mL | (+)-DHTBZ concentration in RLM ([4]; 60 min): 627 ng/mL | (+)-TBZ concentration in RLM ([4]; 60 min): 42 ng/mL | (−)-DHTBZ concentration in RLM ([4]; 60 min): 0 ng/mL | (−)-TBZ concentration in RLM ([4]; 60 min): 0 ng/mL | amounts of therapeutically active VMAT2 inhibitors, (+)-TBZ and (+)-DHTBZ, generated in RLM versus racemate TBZ ([4]; rat liver microsome): comparable amounts | half-life ([4]; rat liver microsome): 10.6 min

COc1cc2c(cc1OC)[C@H]1C[C@H](O)[C@H](CC(C)C)CN1CC2 [(2S,3R,11bR)-DHTBZ]
binding at dopamine receptors (dopamine receptors): negligible binding | sedative effects [1]: lack the unwanted sedative effects

COc1cc2c(cc1OC)C1CC(=O)C(CC(C)C)CN1CC2 (racemic) [TBZ racemate, 1,3,4,6,7,11b-hexahydro-9,10-dimethoxy-3-(2-methylpropyl)-2H-benzo[a]quinolizin-2-one]
less solubility compared to Form 2 crystalline (+)-TBZ ([3]; PBS with 0.2% w/v Tween 20): about 40% | solubility ([3]; aqueous with cosolvent or surfactant or cyclodextrin, thermodynamic from solid, read-out: Solubility): 36.4 µg/mL (≈ 115 µM) | half-life ([4]; liver microsomes, rat liver microsome, read-out: Half-life): 10.6 min | side-effect: akathisia [5]: 9.5% | side-effect: depression [5]: 15.0% | side-effect: drowsiness [5]: 36.5% | side-effect: insomnia [5]: 11.0% | side-effect: nervousness or anxiety [5]: 10.3% | side-effect: parkinsonism [5]: 28.5% | bioavailability [6]: low and variable
